Values belong to the molecule of their own block, whether it stands above or below them. Active and inactive are the calls of the source. No cut-off for these calls is given here. Where a SMILES comes first, the peptide text is derived from it. Bridges are numbered along the chain shown (N, C = ends). The star is where a group is joined. X1 = CC[N+]1=C(/C=C/C=C/C=C/C=C2/N(CCCCCC(=O)*)c3ccc(S(=O)(=O)O)cc3C2(C)C)C(C)(C)c2cc(S(=O)(=O)[O-])ccc21
Columns and labels:
[1] = Biodistribution in C57BL/6 mouse lung at 3 nmol/g, iv measured after 90 mins post injection by fluorescence based analysis; format: ADME, organism-based; details: in vivo, 1.5 h
[2] = Biodistribution in C57BL/6 mouse kidney at 3 nmol/g, iv measured after 90 mins post injection by fluorescence based analysis; format: ADME, organism-based; details: in vivo, 1.5 h
[3] = Biodistribution in C57BL/6 mouse spleen at 3 nmol/g, iv measured after 24 hrs post injection by fluorescence based analysis; format: ADME, organism-based; details: in vivo
[4] = Biodistribution in C57BL/6 mouse lung at 3 nmol/g, iv measured after 24 hrs post injection by fluorescence based analysis; format: ADME, organism-based; details: in vivo
[5] = Biodistribution in C57BL/6 mouse heart at 3 nmol/g, iv measured after 90 mins post injection by fluorescence based analysis; format: ADME, organism-based; details: in vivo, 1.5 h
[6] = Biodistribution in C57BL/6 mouse brain at 3 nmol/g, iv measured after 90 mins post injection by fluorescence based analysis; format: ADME, organism-based; details: in vivo, 1.5 h
[7] = Biodistribution in C57BL/6 mouse spleen at 3 nmol/g, iv measured after 90 mins post injection by fluorescence based analysis; format: ADME, organism-based; details: in vivo, 1.5 h
[8] = Biodistribution in C57BL/6 mouse liver at 3 nmol/g, iv measured after 90 mins post injection by fluorescence based analysis; format: ADME, organism-based; details: in vivo, 1.5 h
Mus musculus [9] = experiment: Neuroprotective activity against pilocarpine-induced seizure in C57BL6 mouse assessed as survival rate at 3 nmol/g, iv pretreated with compound for 1 hrs followed by pilocarpine induction and measured after 2 hrs relative to control; format: functional; details: time 3 hrs
Neuron [10] = experiment: Cytotoxicity against mouse primary neuron upto 1 uM incubated for 24 hrs; format: toxicity, cell-based
[11] = Biodistribution in C57BL/6 mouse spleen at 3 nmol/g, iv measured after 90 mins post injection using Cy7 labelled compound by fluorescence based analysis; format: ADME, organism-based; details: in vivo, 1.5 h
[12] = Biodistribution in C57BL/6 mouse lung at 3 nmol/g, iv measured after 90 mins post injection using Cy7 labelled compound by fluorescence based analysis; format: ADME, organism-based; details: in vivo, 1.5 h
Neuron [13] = experiment: Neuroprotective activity against NMDA-induced cell death in mouse primary neuron assessed as cell viability preincubated with compound for 1 hrs followed by NMDA addition and measured after 1 hrs by PI staining based analysis relative to control; format: functional; details: time 2 hrs
[14] = Biodistribution in C57BL/6 mouse kidney at 3 nmol/g, iv measured after 90 mins post injection using Cy7 labelled compound by fluorescence based analysis; format: ADME, organism-based; details: in vivo, 1.5 h
Disks large homolog 4 = Disks large homolog 4 (Homo sapiens, UniProt P78352); experiment: Binding affinity to PSD-95 (unknown origin) assessed as binding constant (Kd) by MST analysis
Sequence of Disks large homolog 4 (P78352 whole entry): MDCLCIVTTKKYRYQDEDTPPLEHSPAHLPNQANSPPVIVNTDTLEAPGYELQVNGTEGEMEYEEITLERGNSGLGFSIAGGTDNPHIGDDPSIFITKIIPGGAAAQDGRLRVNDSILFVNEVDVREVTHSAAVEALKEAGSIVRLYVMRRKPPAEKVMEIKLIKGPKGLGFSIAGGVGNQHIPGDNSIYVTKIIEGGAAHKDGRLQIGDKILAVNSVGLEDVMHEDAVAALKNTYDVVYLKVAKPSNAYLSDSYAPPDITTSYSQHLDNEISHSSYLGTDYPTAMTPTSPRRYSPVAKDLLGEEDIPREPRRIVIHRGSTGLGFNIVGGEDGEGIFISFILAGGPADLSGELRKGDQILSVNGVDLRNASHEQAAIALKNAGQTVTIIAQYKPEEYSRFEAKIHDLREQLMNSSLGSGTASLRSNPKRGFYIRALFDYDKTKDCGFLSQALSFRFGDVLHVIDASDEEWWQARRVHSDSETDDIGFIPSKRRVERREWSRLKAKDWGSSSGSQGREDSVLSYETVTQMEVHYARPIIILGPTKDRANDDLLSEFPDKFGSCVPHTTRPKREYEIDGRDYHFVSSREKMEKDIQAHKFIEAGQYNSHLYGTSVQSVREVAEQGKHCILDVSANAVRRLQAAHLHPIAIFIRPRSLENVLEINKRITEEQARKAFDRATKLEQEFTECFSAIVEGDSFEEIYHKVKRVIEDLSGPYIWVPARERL

[15] = Drug uptake in mouse Primary neuron at 100 nM measured at 20 mins by inverted confocal microscopic analysis; format: ADME, cell-based; details: 0.1 µM
[16] = Toxicity in C57BL/6 mouse assessed as histological changes in liver at 3 nmol/g, iv administered 3 consecutive days by H and E staining based analysis; format: organism-based; details: in vivo
[17] = Toxicity in C57BL/6 mouse assessed as histological changes in spleen at 3 nmol/g, iv administered 3 consecutive days by H and E staining based analysis; format: organism-based; details: in vivo
[18] = Toxicity in C57BL/6 mouse assessed as histological changes in kidney at 3 nmol/g, iv administered 3 consecutive days by H and E staining based analysis; format: organism-based; details: in vivo
[19] = Biodistribution in C57BL/6 mouse brain at 3 nmol/g, iv measured after 90 mins post injection using Cy7 labelled compound by fluorescence based analysis; format: ADME, organism-based; details: in vivo, 1.5 h
Neuron [20] = experiment: Neuroprotective activity against Amyloid beta-induced cell death in mouse primary neuron assessed as cell viability preincubated with compound for 1 hrs followed by Amyloid beta addition and measured after 1 hrs by PI staining based analysis relative to control; format: functional; details: time 2 hrs
[21] = Biodistribution in C57BL/6 mouse lung at 3 nmol/g, iv measured after 24 hrs post injection using Cy7 labelled compound by fluorescence based analysis; format: ADME, organism-based; details: in vivo
Mus musculus [22] = experiment: Neuroprotective activity against pilocarpine-induced seizure in C57BL6 mouse assessed as reduction in seizure severity at 30 nmol/g, po pretreated with compound for 1 hrs followed by pilocarpine induction and measured after 2 hrs; format: functional, organism-based; details: time 3.0 hrs
[23] = Biodistribution in C57BL/6 mouse spleen at 3 nmol/g, iv measured after 24 hrs post injection using Cy7 labelled compound by fluorescence based analysis; format: ADME, organism-based; details: in vivo
[24] = Biodistribution in C57BL/6 mouse liver at 3 nmol/g, iv measured after 90 mins post injection using Cy7 labelled compound by fluorescence based analysis; format: ADME, organism-based; details: in vivo, 1.5 h
[25] = Toxicity in C57BL/6 mouse assessed as histological changes in lung at 3 nmol/g, iv administered 3 consecutive days by H and E staining based analysis; format: organism-based; details: in vivo
Neuron [26] = experiment: Neuroprotective activity against NMDA-induced cell death in mouse primary neuron assessed as cell viability at 10 nM preincubated with compound for 1 hrs followed by NMDA addition and measured after 1 hrs by PI staining based analysis relative to control; format: functional; details: time 2 hrs, read-out: Activity
Neuron [27] = experiment: Neuroprotective activity against NMDA-induced cell death in mouse primary neuron assessed as cell viability at 1 nM preincubated with compound for 1 hrs followed by NMDA addition and measured after 1 hrs by PI staining based analysis relative to control; format: functional; details: time 2 hrs, read-out: Activity
Neuron [28] = experiment: Neuroprotective activity against Amyloid beta-induced cell death in mouse primary neuron assessed as cell viability at 0.1 nM preincubated with compound for 1 hrs followed by Amyloid beta addition and measured after 1 hrs by PI staining based analysis; format: functional
Mus musculus [29] = experiment: Neuroprotective activity against pilocarpine-induced seizure in C57BL6 mouse assessed as reduction in seizure severity at 3 nmol/g, iv pretreated with compound for 1 hrs followed by pilocarpine induction and measured after 2 hrs; format: functional, organism-based; details: time 3.0 hrs
Mus musculus [30] = experiment: Neuroprotective activity against pilocarpine-induced seizure in C57BL6 mouse assessed as survival rate at 30 nmol/g, po pretreated with compound for 1 hrs followed by pilocarpine induction and measured after 2 hrs relative to control; format: functional; details: time 3 hrs
Neuron [31] = experiment: Neuroprotective activity against Amyloid beta-induced cell death in mouse primary neuron assessed as cell viability at 100 nM preincubated with compound for 1 hrs followed by Amyloid beta addition and measured after 1 hrs by PI staining based analysis; format: functional; details: time 2.0 hrs
[32] = Toxicity in C57BL/6 mouse assessed as change in alanine transaminase level at 3 nmol/g, iv administered 3 consecutive days; format: organism-based; details: in vivo
[33] = Biodistribution in C57BL/6 mouse heart at 3 nmol/g, iv measured after 90 mins post injection using Cy7 labelled compound by fluorescence based analysis; format: ADME, organism-based; details: in vivo, 1.5 h
Neuron [34] = experiment: Neuroprotective activity against NMDA-induced cell death in mouse primary neuron assessed as reduction in cell viability at 100 nM preincubated with compound for 1 hrs followed by NMDA addition and measured after 1 hrs by PI staining based analysis (reference value: 60.01 +/- 4%); format: functional; details: time 2 hrs

Drug uptake [1]: Active | Drug uptake [2]: Active | Drug uptake [3]: Not_active | Drug uptake [4]: Not_active | Drug uptake [5]: Active | Drug uptake [6]: Active | Drug uptake [7]: Active | Drug uptake [8]: Active
Compound: CC[C@H](C)[C@H](NC(=O)[C@H](CO)NC(=O)[C@H](CO)NC(=O)[C@H](CC(C)C)NC(=O)[C@H](CCCCN)NC(=O)[C@H](CCCNC(=N)N)NC(=O)[C@H](CCCNC(=N)N)NC(=O)[C@H](CCCNC(=N)N)NC(=O)[C@H](CCC(N)=O)NC(=O)[C@H](CCCNC(=N)N)NC(=O)[C@H](CCCNC(=N)N)NC(=O)[C@H](CCCCN)NC(=O)[C@H](CCCCN)NC(=O)[C@H](CCCNC(=N)N)NC(=O)CNC(=O)[C@H](Cc1ccc(O)cc1)NC(=O)CCCCCN1/C(=C/C=C/C=C/C=C/C2=[N+](CC)c3ccc(S(=O)(=O)[O-])cc3C2(C)C)C(C)(C)c2cc(S(=O)(=O)O)ccc21)C(=O)N[C@@H](CCC(=O)O)C(=O)N[C@@H](CO)C(=O)N[C@@H](CC(=O)O)C(=O)N[C@H](C(=O)O)C(C)C (X1-YGRKKRRQRRRKLSSIESDV-OH)

Compound: CC[C@H](C)[C@@H]1NC(=O)[C@@H]2CSSC[C@@H]3NC(=O)[C@H](C(C)C)NC(=O)[C@H](CC(=O)O)NC(=O)[C@H](CO)NC(=O)[C@H](CCC(=O)O)NC(=O)[C@H]([C@@H](C)CC)NC(=O)[C@H](CO)NC(=O)[C@H](CO)NC(=O)[C@H](CC(C)C)NC(=O)[C@H](CCCCN)NC(=O)[C@@H]4CSSC[C@H](NC(=O)[C@H](CC(=O)O)NC(=O)[C@H](CO)NC(=O)[C@H](CC(=O)O)NC(=O)[C@H](CCCNC(=N)N)NC(=O)[C@H](CCCNC(=N)N)NC(=O)[C@H](CSSC[C@H](NC1=O)C(=O)N[C@@H](CCCNC(=N)N)C(=O)NCC(=O)N[C@@H](CC(N)=O)C(=O)NCC(=O)N[C@@H](Cc1ccc(O)cc1)C(=O)N4)NC(=O)[C@H](CCCNC(=N)N)NC(=O)[C@H](CCCNC(=N)N)NC(=O)[C@H](CCCNC(=N)N)NC(=O)[C@H](CCCNC(=N)N)NC(=O)[C@H](CC(C)C)NC(=O)[C@H]([C@@H](C)CC)NC(=O)[C@H](CCCNC(=N)N)NC(=O)[C@@H]1CCCN1C3=O)C(=O)N1CCC[C@H]1C(=O)NCC(=O)N[C@@H](C)C(=O)N2 (cyclo(ACICRGNGYCKLSSIESDVCPRILRRRRCRRDSDCPG); disulfide 2-20, 4-29, 10-35)
Survival (Mus musculus [9]): 75% | Activity (Neuron [10]): Non-toxic | Drug uptake [11]: Active | Drug uptake [12]: Active | Activity (Neuron [13]): 18.2% | Drug uptake [14]: Active | Kd (Disks large homolog 4): 1.8 µM | Drug uptake [15]: Active | Activity [16]: Non-toxic | Activity [17]: Non-toxic | Activity [18]: Non-toxic | Drug uptake [19]: Active | Activity (Neuron [20]): 20.9% | Drug uptake [21]: Active | Activity (Mus musculus [22]): Not active; Slightly Lower Seizure Severity | Drug uptake [23]: Not_active | Drug uptake [24]: Active | Activity [25]: Non-toxic | viability at 0.01 µM (Neuron [26]): 22.4% | viability at 0.001 µM (Neuron [27]): 39.8% | Activity (Neuron [28]): Active | Activity (Mus musculus [29]): Active | Survival (Mus musculus [30]): 50% | Activity (Neuron [31]): Active | Activity [32]: Toxic | Drug uptake [33]: Active | Activity (Neuron [34]): 8.56%

From ChEMBL document CHEMBL6114943, “Engineered Cyclotide Blocks Neuronal Excitotoxicity” (J Med Chem, 2025)
